What was measured:
[1] = Dose-response to otenzepad in a mouse model of diarrhea (fecal pellet count); format: in vivo, Male Swiss mice; details: increasing doses of otenzepad, T0 to T+4 h
From the text: Male Swiss mice (4-6 weeks old), N=10 per treatment group were used, and treated with either vehicle (vehicle group) or increasing doses of otenzepad, a representative M2-antagonist. Mice were randomly assigned to one of two experimental groups (vehicle; or increasing doses of otenzepad). Each animal was identified by its group name, cage number, series (day) of experiment, and number (1 to 10) written with permanent ink on the tail. Mice were placed individually in cages without any bedding materials. During the experiment the number of fecal pellets was counted at different time-points, starting one hour before the time of the administration of the test compound (T0), as outlined below:
(§1) T−1 h to T0: counting of the accumulated fecal pellets excreted.
T0: administration of the test compound.
T0 to T+2 h: counting of the accumulated fecal pellets excreted.
T+2 h to T+4 h: counting of the accumulated fecal pellets excreted.
(§2) The total number of fecal pellets for each mouse was counted over time. An analysis of variance (ANOVA) was performed on the results. Fisher's Protected Least Significant Difference was used for pairwise comparisons; p values≤0.05 were considered significant. Grubbs' test (http://www.graphpad.com/quickcalcs/Grubbsl.cfm) was used to detect outliers for each parameter in each experimental group.

[2] = T-maze continuous alternation task (T-CAT) with solifenacin and otenzepad; format: in vivo, Male Swiss mice
From the text: Evaluation of Cognition with Solifenacin and Otenzepad in the T-Maze Alternation Task in Mice The T-maze continuous alternation task (T-CAT) is useful as model for studying compounds with cognitive enhancing properties. The T-maze consists of 2 choice arms and 1 start arm mounted to a square centre. Manual doors are provided to close specific arms during the force choice alternation task. Male Swiss mice (4-6 weeks old), N=10 per treatment group were used, and were pre-treated with: • Solifenacin at the dose that blocked fecal pellet excretion in Experiment 2 of Example 1. […] Mice were randomly assigned to one of the different experimental treatment groups. Each animal was identified by its group name, cage number, series (day) of experiment, and number (1 to 10) written with permanent ink on the tail. The T-maze apparatus is made of gray Plexiglas with a main stem (55 cm long×10 cm wide×20 cm high) and two arms (30 cm long×10 cm wide×20 cm high) positioned at 90 degree angle relative to the main stem. […] The percentage of alternation over the 14 free-choice trials was determined for each mouse and was used as an index of working memory performance. […] The drug-induced improvement of memory was calculated by setting the respective response of the saline/vehicle as 100% and that of the test group as 0% reversion. […]

[3] = cited from earlier work
[4] = aged memory impaired rats; cited from earlier work
[5] = young animals; cited from earlier work
[6] = traumatic brain-injured rats; cited from earlier work
[7] = clinical study; cited from earlier work
[8] = cited from earlier work; remark: listed apart in the source
[9] = cited from earlier work; remark: listed apart in the source
[10] = in vivo; cited from earlier work
[11] = in vivo; cited from earlier work; remark: listed apart in the source
[12] = bilateral intrastriatal infusion, female rats; cited from earlier work
[13] = transdermal, rats, [14C] label; cited from earlier work
[14] = Antagonism of otenzepad-induced diarrhea in mice by solifenacin; format: in vivo, Male Swiss mice; details: solifenacin 2 to 40 mg/kg given 30 min before otenzepad
Experimental: Male Swiss mice (4-6 weeks old), N=10 per treatment group were used. Animals were pretreated with solifenacin (a representative peripheral muscarinic receptor antagonist) or vehicle; 30 minutes later animals were treated with otenzepad at a dose that caused diarrhea (as determined in Experiment 1). The dose of solifenacin ordinarily ranged from 2 to 40 mg/kg. Mice were placed individually in cages without any bedding materials. During the experiment the number of fecal pellets was counted at different time-points as outlined below:
as §1
T0: administration of solifenacin.
T30 min: administration of vehicle or otenzepad.
T 30 min to T 2.5 h: counting of accumulated fecal pellets excreted.
T+2.5 h to T+4.5 h: counting of accumulated fecal pellets excreted.
as §2, with “comparisons. The” for “comparisons;”, “value≤0.05” for “values≤0.05”, “(http//www at graphpad.com/quickcalcs/Grubbs.cfm)” for “(http://www.graphpad.com/quickcalcs/Grubbsl.cfm)”

[15] = absorbed amount; cited from earlier work

CCN(CC)CC1CCCCN1CC(=O)N1c2ccccc2C(=O)Nc2cccnc21 (racemic) [otenzepad, (±)11-[[2-[(diethylamino)methyl]-1-piperidinyl]acetyl]-5,11-dihydro-6H-pyrido[2,3-b][1,4]benzodiazepin-6-one]
diarrhea (number of fecal pellets) [1]: dose-dependently causes diarrhea
cognition (percentage of alternation, working memory) ([2]; two doses of otenzepad, in the presence of solifenacin): improves cognition in a dose-dependent manner
subjects with mild and tolerable adverse events (palpitations, dry mouth, headache) ([3]; 270 to 810 mg/day): about 20%
muscarinic adverse effects ([3]; single oral doses of 120, 240 and 480 mg): does not induce manifest muscarinic adverse effects

CCCC(C)(C)C(=O)N(CC)CCCC1CCN(CC(=O)N2c3ccc(Cl)cc3C(=O)Nc3cccnc32)CC1 [BIBN-99, 5,11-dihydro-8-chloro-11-[[4-[3-[(2,2-dimethyl-1-oxopentyl)ethylamino]propyl]-1-piperidinyl]acetyl]-6H-pyrido[2,3-b][1,4]benzodiazepin-6-one]
impaired ACh release and cognitive deficits [4]: reverses, in a dose-dependent manner
scopolamine-induced amnesia [5]: improves scopolamine-induced amnesia
cognitive deficits [6]: attenuate cognitive deficits

CCn1nnc(C2=CCCN(C)C2)n1 [Lu 25-109, 5-(2-ethyl-2H-tetrazol-5-yl)-1-methyl-1,2,3,6-tetrahydropyridine]
fixed-dose Maximum Tolerated Dose [7]: 150 mg t.i.d.
side effects ([8]; anorexia, nausea, diarrhea, increased sweating, increased with dose): prominent cholinergic side effects
primary and secondary variables versus placebo (antidementia efficacy) ([8]; three doses, 6 months, 496 patients with probable AD): no significant differences

COc1ccc([S+]([O-])c2ccc(C(C#N)N3CCN(C4CCCCC4)CC3)cc2)cc1 (stereo not drawn) [SCH 57790, 4-cyclohexyl-alpha-[4[[4-methoxyphenyl]sulphinyl]-phenyl]-1-piperazineacetonitrile]
brain acetylcholine release ([9]; in vivo): dose-related increase
cognitive performance ([9]; rodents and nonhuman primates): enhances cognitive performance

CCCS(=O)(=O)N1CCC(C)(N2CCN([C@@H](C)c3ccc(S(=O)(=O)c4ccc5c(c4)OCO5)cc3)[C@H](C)C2)CC1 [SCH 72788, 4-[4-[1(S)-[4-[(1,3-benzodioxol-5-yl)sulfonyl]phenyl]ethyl]-3(R)-methyl-1-piperazinyl]-4-methyl-1-(propylsulfonyl)piperidine]
ACh release [10]: increases ACh release
activity in a rodent model of cognition [10]: active

Cc1cccc(C(=O)N2CCC(N3CCC(C4(c5ccc(S(=O)(=O)c6cccc(Cl)c6)cc5)OCCO4)CC3)CC2)c1N [SCH-217443, 1′-(2-amino-3-methylbenzoyl)-4-[[[(3-chlorophenyl)sulfonyl]phenyl]ethylenedioxymethyl]-1,4′-bipiperidine]
activity in a rat model of cognition [11]: shows activity

COc1ccccc1CNCCCCCCNCCCCCCCCNCCCCCCNCc1ccccc1OC [methoctramine, N,N′-bis[6-[(2-methoxybenzyl)amino]hexyl]-1,8-octanediamine]
procedural memory performance [12]: improves procedural memory performance

CCN(CC)CC#CCOC(=O)C(O)(c1ccccc1)C1CCCCC1 (centres unmarked) [oxybutynin, 4-diethylaminobut-2-ynyl 2-cyclohexyl-2-hydroxy-2-phenylethanoate]
brain penetration [13]: presence of radiolabel in the brain

O=C(O[C@H]1CN2CCC1CC2)N1CCc2ccccc2[C@@H]1c1ccccc1 [solifenacin, (1S)-(3R)-1-azabicyclo[2.2.2]oct-3-yl 3,4-dihydro-1-phenyl-2(1H)-iso-quinolinecarboxylate]
antagonism of otenzepad-induced diarrhea (fecal pellets) [14]: dose-dependently antagonized the diarrhea
effect of solifenacin on cognitive response to otenzepad (percentage of alternation) ([2]; solifenacin pre-treatment 30 min before otenzepad): did not affect cognitive response to otenzepad

O=C(O[C@H]1C[C@H]2CC[C@@H](C1)[N+]21CCCC1)C(O)(c1ccccc1)c1ccccc1 [trospium chloride, azoniaspiro[33-benziloyloxy-(1α,5α)-nortropane-8,1′-pyrrolidine] (trospium) chloride]
average plasma half-life [15]: about 18 hours

From patent US20180360845A1, “MUSCARINIC COMBINATION OF A SELECTIVE M2-ANTAGONIST AND A PERIPHERAL NON-SELECTIVE ANTAGONIST FOR TREATING HYPOCHOLINERGIC DISORDERS” (CHASE PHARMACEUTICALS CORPORATION, priority 2015, published 2018)
